What was measured:
[1] = Mortality before weaning, neonatal treatment
Description: Treatment with either 7,8-DHFor vehicle began on postnatal day 3(P3). All mice that survived in the P0 to P3 period entered this study, with no specific selection criteria. Total of 185 mice entered the study (96 males and 89 females). The number of vehicle-treated and 7,8-DHF treated mice was 96 and 89, respectively.
The Ts65Dn strain is characterized by a high mortality rate during gestation (Roper et al., 2006). […] In the current study, treatment with either 7,8-DHF or vehicle began on postnatal day 3 (P3). All mice that survived in the P0 to P3 period entered this study, with no specific selection criteria.

[2] = Prenatal treatment: abortion rate, pups per litter, mortality of progeny
Procedure: Ts65Dn females (n=4) were bred C57BL/6JEi×C3SnHeSnJ (B6EiC3) F1 males (n=4). Conception was determined by examining the vaginal plug. Pregnant females received a daily subcutaneous injection of either 7,8-DHF (Sigma-Aldrich) in PBS with 2% DMSO (dose: 5 mg/kg) or vehicle from the embryonic (E) day 10 (E10) to the day of delivery (E20/21). […] On postnatal day 2 (P2) the progeny of 7,8-DHF-treated and vehicle-treated females received an intraperitoneal injection (150 μg/g body weight) of BrdU (Sigma) in 0.9% NaCl solution and were killed after 2 h (on P2; 4-8 animals for each group). Vehicle-treated females and their progeny will be called hereafter untreated mice. The body weight of P2 mice was recorded prior to sacrifice. After sacrifice, brain was excised and weighed.
The Ts65Dn strain is characterized by a high mortality rate during gestation (Roper et al., 2006).

[3] = system: proliferating cells in the SGZ; experiment: Prenatal treatment: BrdU-positive cells in the SGZ of P2 mice; assay type: in vivo, mouse
Procedure: Conception was determined by examining the vaginal plug. […] After sacrifice, brain was excised and weighed.
One of 20 sections (n=8-10) from the beginning to the end of the hippocampal formation were subjected to double-fluorescence immunohistochemistry for BrdU and NeuN. Sections were incubated overnight at 4° C. with a primary antibody, rat monoclonal anti-BrdU antibody (AbD Serotec), diluted 1:100 in 0.1% Triton X-100 in PBS and either mouse monoclonal anti-NeuN (Millipore Bioscience Research Reagents) diluted 1:400 in 0.1% Triton X-100 in PBS. Sections were then washed in 0.1% Triton X-100 in PBS for 40 min and incubated for 2 h with a Cy3-conjugated anti-rat IgG (1:200; Jackson Immunoresearch) secondary fluorescent antibody for BrdU immunohistochemistry and FITC-conjugated anti-mouse IgG (1:200; Jackson Immunoresearch) for NeuN immunohistochemistry.
BrdU-positive cells were sampled in the caudal subventricular zone (SVZ) of the lateral ventricle overlying the dentate gyrus and from the subgranular zone (SGZ) of the dentate gyrus (FIG. 10A). The caudal SVZ is the region that stretches from the beginning to the end of the hippocampal formation (BC: 3.27-4.84 mm). Since different regions of the ventricular zone (VZ) and SVZ give origin to neurons destined to different telecephalic areas (Brazel et al., 2003), we evaluated the effects of treatment both in the dorsal and lateral part of the SVZ (FIG. 10B). For cell counting, an area was traced enclosing the whole SVZ and all cells in this area were counted. While at later life stages, neural progenitor cells are only present in the SGZ of the dentate gyrus, in P2 pups proliferating cells can be detected in the perspective molecular layer and hilus. Therefore, cells were counted within a manually-traced area enclosing the whole dentate gyrus (FIG. 10B). […] Quantification of BrdU-labeled nuclei was conducted in every 20th section. The total number of BrdU labeled cells in the SVZ and SGZ was estimated by multiplying the number counted in the sampled sections by the inverse of the section sampling fraction (ssf= 1/20).

cultures of NPCs = experiment: Apoptotic cells in NPC cultures; assay type: cell-based, mouse; settings: data not shown
BDNF = experiment: Western blot of hippocampal homogenates: BDNF; assay type: in vivo, mouse
Procedure: Euploid and Ts65Dn mice received a daily subcutaneous injection (at 9-10 am) of 7,8-DHF (5.0 mg/kg in vehicle: PBS with 1% DMSO) or vehicle from postnatal day 3 (P3) to postnatal day 15. This timing was chosen because it corresponds to that previously used to test the effects of fluoxetine and other pharmacotherapies in the neonate Ts65Dn mouse (Bianchi et al., 2010b; Giacomini et al., 2015; Stagni et al., 2016). Mice that received 7,8-DHF will be called “treated mice” (treated euploid mice: n=25; treated Ts65Dn mice: n=15). Mice that received the vehicle will be called “untreated mice” (untreated euploid mice: n=35; untreated Ts65Dn mice: n=21). […] The brains were excised and cut along the midline. The left hemisphere of a group of mice was fixed by immersion in PFA 4% and frozen, and the left hemisphere of another group of mice was used for Golgi staining. […]
In homogenates of the hippocampal formation of P15 mice, total proteins were obtained as previously described (Trazzi et al., 2011) and the levels of the following proteins were evaluated: BDNF, TrkB full length (TrkB-FL), phosphorylated TrkB (p-TrkB), the truncated form 1 of the TrkB receptor (TrkB-T1), phosphorylated ERK1 (p-ERK1), phosphorylated ERK2 (p-ERK2), ERK1, ERK2, synaptophysin (SYN), GAPDH and α-Tubulin using the antibodies reported in Table 1. […]

In the case of `O=c1cc(-c2ccccc2)oc2c(O)c(O)ccc12` [7,8-DHF, 7,8-dihydroxyflavone], the “adverse effects on the health of mice” value ([1]; mouse, in vivo) was “no adverse effects on the health of mice”, the “mice that died before weaning” value ([1]; treatment from P3, deaths in the P6-P22 period, vehicle 7.3%) was 5.6% and the “mean number of pups per litter” value ([2]; female, Ts65Dn, mouse, in vivo) was 5.33±2.04. For the same compound, the spontaneous abortion ([2]; mouse, in vivo) was “none of untreated and treated females underwent spontaneous abortion”, the “mortality rate of the progeny” value ([2]; treated females, mean±ES, vehicle 0.00±0.00, p=0.219) was 0.66±0.81 and the “total number of BrdU-positive cells in the SGZ, treated Ts65Dn vs untreated euploid mice” value ([3]; P2, treated E10-E20/21) was “no differences in total number of BrdU-positive cells”. The “total number of BrdU-positive cells in the SGZ” value ([3]; P2 Ts65Dn mice, dams 5 mg/kg s.c. E10-E20/21, untreated Ts65Dn approx. 12850, euploid approx. 17500) was “approximately 16800”, the “increase in cell number in the SGZ vs untreated Ts65Dn” value ([3]; P2 Ts65Dn mice, treated E10-E20/21) was “+30%” and the “number of apoptotic cells” value (cultures of NPCs) was “no effect of treatment”. For the same compound, the “BDNF levels in the hippocampus” value (BDNF; P15 Ts65Dn mice, statistically significant) was “reduction in BDNF levels” and the “BDNF levels in the hippocampus” value (BDNF; P15 euploid mice, not statistically significant) was “reduction in BDNF levels”.

Reference: patent publication US10945989B2, “Perinatal treatment with a flavonoid agonist of the TrkB receptor for BDNF rescues neurogenesis and behavior in the Ts65Dn mouse model of DS” (ALMA MATER STUDIORUM—Universita' di Bologna, priority 2017, dated 2021)
